Results published in patent US20200337310A1, “Herbicidal Combinations” (UPL LTD, priority 2018, published 2020).

Assays:
Test in all cases: Field trial, weed control burn down symptoms at 5 DAT
Details in all cases: field trial India, glufosinate ammonium 400, carfentrazone 10, imazethapyr 100 gm/ha
Dinebra retroflexa = system: Dinebra retroflexa
Trianthema monogyna = system: Trianthema monogyna
Cyprus spp = system: Cyprus spp
Parthenium hysterophorus = system: Parthenium hysterophorus

| SMILES | % Weed control Burn Down Symptoms Generation, Dinebra retroflexa, Actual (Dinebra retroflexa) | % Weed control Burn Down Symptoms Generation, Trianthema monogyna, Actual (Trianthema monogyna) | % Weed control Burn Down Symptoms Generation, Cyprus spp, Actual (Cyprus spp) | % Weed control Burn Down Symptoms Generation, Parthenium hysterophorus, Actual (Parthenium hysterophorus) |
| --- | --- | --- | --- | --- |
| CCOC(=O)C(Cl)Cc1cc(-n2nc(C)n(C(F)F)c2=O)c(F)cc1Cl (racemic) [Carfentrazone, ethyl (RS)-2-chloro-3-{2-chloro-5-[4-(difluoromethyl)-4,5-dihydro-3-methyl-5-oxo-1H-1,2,4-triazol-1-yl]-4-fluorophenyl}propionate] | 0% | 70% | 60% | 5% |
| CP(=O)(O)CCC(N)C(=O)O (racemic) [Glufosinate ammonium, (2RS)-2-amino-4-[hydroxy(methyl)phosphinoyl]butyric acid] | 15% | 25% | 5% | 30% |
| CCc1cnc(C2=NC(C)(C(C)C)C(=O)N2)c(C(=O)O)c1 (racemic) [Imazethapyr, 5-ethyl-2-[(RS)-4-isopropyl-4-methyl-5-oxo-2-imidazolin-2-yl]nicotinic acid] | 0% | 10% | 00% | 5% |
